Numbers after ± are expanded uncertainties.
Conditions: Crystal, Transpiration method

Row | vapor or sublimation pressure (424 K) [kPa] | vapor or sublimation pressure (434.1 K) [kPa] | vapor or sublimation pressure (440 K) [kPa] | vapor or sublimation pressure (446 K) [kPa] | vapor or sublimation pressure (451.9 K) [kPa] | vapor or sublimation pressure (457.7 K) [kPa] | vapor or sublimation pressure (462.6 K) [kPa] | vapor or sublimation pressure (467.4 K) [kPa] | vapor or sublimation pressure (472.4 K) [kPa] | vapor or sublimation pressure (426.4 K) [kPa] | vapor or sublimation pressure (430.5 K) [kPa] | vapor or sublimation pressure (436.2 K) [kPa] | vapor or sublimation pressure (440.5 K) [kPa] | vapor or sublimation pressure (447.6 K) [kPa] | vapor or sublimation pressure (450.8 K) [kPa] | vapor or sublimation pressure (456.5 K) [kPa] | vapor or sublimation pressure (460.6 K) [kPa] | vapor or sublimation pressure (464.8 K) [kPa] | vapor or sublimation pressure (468.9 K) [kPa] | vapor or sublimation pressure (472.3 K) [kPa] | Compound
1 | 0.00022 ± 2e-05 | 0.00051 ± 4e-05 | 0.00086 ± 7e-05 | 0.00135 ± 0.0001 | 0.00212 ± 0.00015 | 0.00317 ± 0.0002 | 0.0047 ± 0.0003 | 0.00673 ± 0.00046 | 0.00905 ± 0.0006 | – | – | – | – | – | – | – | – | – | – | – | O=c1cc[nH]c(=O)[nH]1 [2,4(1H,3H)-pyrimidinedione]
2 | – | – | – | – | – | – | – | – | – | 0.00061 ± 5e-05 | 0.00086 ± 7e-05 | 0.00134 ± 0.0001 | 0.00183 ± 0.00012 | 0.00314 ± 0.0002 | 0.00397 ± 0.00025 | 0.00601 ± 0.00043 | 0.00813 ± 0.00056 | 0.01106 ± 0.00073 | 0.01464 ± 0.00095 | 0.01767 ± 0.0011 | Cc1c[nH]c(=O)[nH]c1=O [thymine]
